Test results reported in publication PMC6536496, “Modulation of antibiotic sensitivity and biofilm formation in Pseudomonas aeruginosa by interspecies signal analogues” (Nature Communications, 2019).

Target: T1, PA1396 (Pseudomonas aeruginosa, UniProt Q9I3U8)
T1 construct: reporter rows: PA1396 in P. aeruginosa cells
Test: auto-phosphorylation in liposomes, […] SDS-PAGE
Format: biochemical
Conditions: 10 mM MgCl2, 1 mM DTT, room temperature, 10 min

T1 sequence (Q9I3U8 entry or part of it): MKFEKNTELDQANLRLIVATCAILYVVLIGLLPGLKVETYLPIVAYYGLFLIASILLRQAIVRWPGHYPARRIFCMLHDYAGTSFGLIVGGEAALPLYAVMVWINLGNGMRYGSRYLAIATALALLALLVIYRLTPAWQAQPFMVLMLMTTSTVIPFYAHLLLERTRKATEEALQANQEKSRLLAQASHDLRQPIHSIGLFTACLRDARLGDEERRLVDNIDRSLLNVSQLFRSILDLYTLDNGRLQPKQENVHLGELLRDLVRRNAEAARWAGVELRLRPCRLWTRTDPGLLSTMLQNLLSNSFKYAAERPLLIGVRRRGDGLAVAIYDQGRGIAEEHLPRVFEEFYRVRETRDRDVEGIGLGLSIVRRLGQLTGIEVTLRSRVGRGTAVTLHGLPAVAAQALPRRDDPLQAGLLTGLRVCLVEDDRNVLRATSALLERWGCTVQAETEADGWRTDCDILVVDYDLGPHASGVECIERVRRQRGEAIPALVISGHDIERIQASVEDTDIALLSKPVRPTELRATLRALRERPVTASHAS

With `CC(C)CCCCCCC/C=C\C(=O)O` [C1, cis-11-methyl-2-dodecenoic acid] the “auto-phosphorylation in liposomes, 32P SDS-PAGE” value (agonist, 10 µM) was “addition of DSF to PA1396-loaded liposomes led to a robust increase in the level”.
For `CC(C)CCCCCCC/C=C\C(=O)NS(C)(=O)=O` [C23, (Z)-11-methyl-N-(methylsulfonyl)dodec-2-enamide], the “auto-phosphorylation in liposomes, 32P SDS-PAGE” value (antagonist against 10 µM DSF) was “C23 blocks the recognition of DSF by PA1396”.
